# Experimental data as given in patent publication US20120251999A1, “VITRIFICATION SYSTEMS AND METHODS” (THE BRIGHAM AND WOMEN'S HOSPITAL, INC., priority 2011, published 2012).
# “And” between values parts separate entries of the source, which are not always exact repeats. Identical values can stand only once. Like-named read-outs stand apart in the source and are kept apart here.
# What was measured:
# [1] = ejected into liquid nitrogen
# From the text: The experimental setup was as described in Song et al. PNAS 2010.
# mouse oocytes = test: Parthenogenetic activation of oocytes using SrCl2 (cleavage and blastocyst development); type: cell-based
# Protocol: Prior to parthenogenetic activation, oocytes were cultured in KSOM medium supplemented with 4 mg/ml BSA for 2 h to allow oocytes to recover from the previous experimental procedure. For parthenogenetic activation, oocytes were incubated in SrCl2 solution in KSOM medium at 37° C. in 5% CO2/95% air for 2 h and then washed three-times with FHM medium. Oocytes were then transferred to KSOM medium and cultured at 37° C. in 5% CO2/95% air.
# To determine the optimal SrCl2 concentration to parthenogenetically activate fresh mouse oocytes, we tested four SrCl2 concentrations (10 mM, 20 mM, 50 mM and 100 mM). Over the following 6 days, treated oocytes were examined microscopically every day for embryo development to the cleavage and blastocyst stages. Day 1 is defined as 24 h after treatment. Oocytes incubated in the regular KSOM medium without SrCl2 were used as controls. To determine whether droplet encapsulation has effect on oocyte parthenogenetic activation, oocytes in FHM medium were ejected into a center well culture dish containing 400 μl of FHM medium. To minimize the effects of shear stress generated at the ejector tip when using medium instead of CPAs, the flow rate of nitrogen gas was reduced to 0.6 SLPM to obtain droplet sizes similar to those obtained at 0.8 SLPM using CPAs. Oocytes were retrieved and cultured in KSOM medium at 37° C. in 5% CO2/95% air for 2 h before parthenogenetic activation. SrCl2 solution at the concentration of 50 mM, which gave the highest cleavage and blastocyst rates with control oocytes, was used for the activation of oocytes following ejection into the medium.
# [2] = 10 mM SrCl2, fresh control oocytes
# [3] = 10 mM SrCl2, fresh control oocytes, 81 initiated
# [4] = 20 mM SrCl2, fresh control oocytes
# [5] = 20 mM SrCl2, fresh control oocytes, 82 initiated
# [6] = 50 mM SrCl2, fresh control oocytes
# [7] = 50 mM SrCl2, fresh control oocytes, 79 initiated
# [8] = 50 mM SrCl2, oocytes after ejection with medium
# [9] = 100 mM SrCl2, fresh control oocytes
# [10] = 100 mM SrCl2, fresh control oocytes, 88 initiated
structure (smiles),measurement,setting,value
"CC(O)CO (stereo not shown) [PrOH, 1,2-propanediol]",vitrification of droplets,"[1]; 194 μm droplets, 3 M PrOH",vitrified
same,vitrification of droplets,"[1]; 525 μm droplets, 4.5 M PrOH",non-vitrified
[Cl-].[Cl-].[Sr+2] [SrCl2],Blastocysts developed (%),mouse oocytes; [2],0 (0)
same,Oocytes cleaved (%),mouse oocytes; [2],3.7%
same,Blastocysts developed (number),mouse oocytes; [3],0 (0)
same,No. of Oocytes cleaved,mouse oocytes; [3],3
same,Blastocysts developed (%),mouse oocytes; [4],15.9%
same,Oocytes cleaved (%),mouse oocytes; [4],46.3%
same,Blastocysts developed (number),mouse oocytes; [5],13
same,No. of Oocytes cleaved,mouse oocytes; [5],38
same,Blastocysts developed (%),mouse oocytes; [6],49.4%
same,Oocytes cleaved (%),mouse oocytes; [6],88.9% and 88.6%
same,Blastocysts developed (number),mouse oocytes; [7],33
same,No. of Oocytes cleaved,mouse oocytes; [7],70
same,Blastocysts developed (%),mouse oocytes; [8],26.0%
same,Oocytes cleaved (%),mouse oocytes; [8],96% and 97.0%
same,Blastocysts developed (number),"mouse oocytes; 50 mM SrCl2, oocytes after ejection with medium, 100 initiated",26
same,No. of Oocytes cleaved,"mouse oocytes; 50 mM SrCl2, oocytes after encapsulation in medium droplets and ejection into medium, 100 initiated",96
same,Blastocysts developed (%),mouse oocytes; [9],2.3%
same,Oocytes cleaved (%),mouse oocytes; [9],48.9%
same,Blastocysts developed (number),mouse oocytes; [10],2
same,No. of Oocytes cleaved,mouse oocytes; [10],43
